From patent publication US12122787B2, “Fused pyridone compound, and preparation method therefor and use thereof” (SHANGHAI JEMINCARE PHARMACEUTICALS CO., LTD, priority 2019, dated 2024)

System: phosphorylated ERK (Thr202/Tyr204) in NCI-H358 cells expressing mutant RAS(G12C)
Experiment: Inhibition of RAS-mediated signal transduction: phosphorylated ERK ELISA in NCI-H358 cells
Type: cell-based
Conditions: Homo sapiens, NCI-H358, 2 h, NCI-H358 cells, 2 hours of treatment, pERK normalized by Janus Green B; read-out: p-ERK IC50 (NCI H358)
Protocol: The cells were treated with or without the compound of the present disclosure (dimethyl sulfoxide, DMSO), and the final concentration of DMSO was guaranteed to be 0.5%. After 2 hours of treatment, the medium was removed and 4% paraformaldehyde (Beyotime catalog number E672002-0100) was added and left to stand for 20 minutes. Cells were washed with PBS after fixation and incubated with precooled methanol for 10 min to permeabilize the cell membrane.
The level of phosphorylated ERK was detected using an enzyme linked immunosorbent assay (ELISA) method. […] The plates were washed 5 times with PBS containing 0.05% Tween 20. […] The reaction was stopped by adding 1 mol/L H2SO4, and the OD value was read at 450 nm by EnVision (PerkinElmer).
The total number of cells per well was detected by Janus Green B staining method. After detecting the level of phosphorylated ERK, the 96-well plate was washed with PBS until colorless, and 0.1% Janus Green B (Abcam catalogue number ab111622) was added to incubate for 10 minutes. After the 96-well plate was washed with double distilled water, 0.1 mol/L HCl was added, then the mixture was shaked and incubated for 10 minutes. The OD value was read at 595 nm by EnVision (PerkinElmer).
The signal of pERK (Thr202/Tyr204) was normalized by the signal value of Janus Green B, and the inhibition percentage after drug treatment relative to DMSO reference was calculated. The percentage values were fitted by a four-parameter dose-response curve and generated IC50 values.

| Compound | IC50 |
| --- | --- |
| C=CC(=O)N1C[C@@H]2COc3c(c4cc(F)c(-c5c(F)cccc5OC)nc4n(-c4ccccc4C(C)C)c3=O)N2C[C@H]1C [Compound 1A] | 173 nM |
| C=CC(=O)N1C[C@@H]2COc3c(c4cc(Cl)c(-c5c(O)cccc5F)nc4n(C)c3=O)N2C[C@H]1C [Compound 9] | 1960 nM |
| C=CC(=O)N1C[C@@H]2CNc3c(c4cc(F)c(-c5c(O)cccc5F)nc4n(-c4ccccc4C(C)C)c3=O)N2C[C@H]1C [Compound 11A] | 1120 nM |
| C=CC(=O)N1CCN2c3c(c(=O)n(-c4ccccc4C(C)C)c4nc(-c5c(O)cccc5F)c(F)cc34)OC[C@H]2C1 [Compound 12A] | 604 nM |
| C=CC(=O)N1C[C@@H]2COc3c(c4cc(F)c(-c5c(C)ccc6[nH]cnc56)nc4n(-c4ccccc4C(C)C)c3=O)N2C[C@H]1C [Compound 17] | 275 nM |

Same assay, conditions: NCI-H358 cells, 2 hours of treatment, pERK normalized by Janus Green B; read-out: p-ERK IC50 (NCI H358)

| Compound | IC50 |
| --- | --- |
| C=CC(=O)N1C[C@@H]2COc3c(c4cc(F)c(-c5c(O)cccc5F)c(F)c4n(-c4c(C)ccnc4C(C)C)c3=O)N2C[C@H]1C (atropisomer, axis not shown) [Compound 3A-1] | 3010 nM |
| C=CC(=O)N1C[C@@H]2CN(C)c3c(c4cc(F)c(-c5c(O)cccc5F)c(F)c4n(-c4c(C)ccnc4C(C)C)c3=O)N2C[C@H]1C (atropisomer, axis not shown) [Compound 16B-1] | 648 nM |
| C=CC(=O)N1C[C@@H]2C(=O)N(CCN(C)C)c3c(c4cc(Cl)c(-c5c(O)cccc5F)c(F)c4n(-c4c(CC)ccnc4C(C)C)c3=O)N2C[C@H]1C (atropisomer, axis not shown) [Compound 54A-2] | 844 nM |
| C=CC(=O)N1C[C@@H]2COc3c(c4cc(F)c(-c5c(F)cccc5OC)nc4n(-c4c(C)ccnc4C(C)C)c3=O)N2C[C@H]1C (single isomer, unassigned) [Compound 6B] | 691 nM |
| C=CC(=O)N1C[C@@H]2COc3c(c4cc(F)c(-c5c(C)ccc6[nH]ncc56)nc4n(-c4ccccc4C(C)C)c3=O)N2C[C@H]1C (single isomer, unassigned) [Compound 13B] | 5670 nM |
| C=CC(=O)N1C[C@@H]2CN(C)c3c(c4cc(F)c(-c5c(O)cccc5F)c(F)c4n(-c4c(C)ccnc4C(C)C)c3=O)N2C[C@H]1C (single isomer, unassigned) [Compound 16B] | 1250 nM |
| C=CC(=O)N1CC2COc3c(c4cc(F)c(-c5c(O)cccc5F)c(F)c4n(-c4c(C(C)C)ncnc4C(C)C)c3=O)N2CC1C (single isomer, unassigned) [Compound 19B] | 936 nM |
| C=CC(=O)N1C[C@@H]2COc3c(c4cc(F)c(-c5c(O)cccc5F)c(F)c4n(-c4c(C)ccnc4C(C)C)c3=O)N2C[C@H]1C [Compound 3A-2] | 5240 nM |
| C=CC(=O)N1C[C@@H]2COc3c(c4cc(F)c(-c5c(O)cccc5F)c(F)c4n(-c4c(C)ccnc4C(C)C)c3=O)N2C[C@H]1C [Compound 3A] | 474 nM |
| C=CC(=O)N1C[C@@H]2C(=O)N(C)c3c(c4cc(F)c(-c5c(O)cccc5F)c(F)c4n(-c4c(C)ccnc4C(C)C)c3=O)N2C[C@H]1C [Compound 21A] | 13 nM |
| C=CC(=O)N1C[C@@H]2C(=O)N(C)c3c(c4cc(F)c(-c5c(O)cccc5F)c(F)c4n(-c4c(C)ccnc4C(C)C)c3=O)N2C[C@H]1C [Compound 21B-1] | 2240 nM |
| C=CC(=O)N1C[C@@H]2C(=O)N(C)c3c(c4cc(F)c(-c5c(O)cccc5F)c(F)c4n(-c4c(C)ccnc4C(C)C)c3=O)N2C[C@H]1C [Compound 21B] | 306 nM |
| C=CC(=O)N1C[C@@H]2C(=O)Nc3c(c4cc(F)c(-c5c(O)cccc5F)c(F)c4n(-c4c(C)ccnc4C(C)C)c3=O)N2C[C@H]1C [Compound 22B-1] | 213 nM |
| C=CC(=O)N1C[C@@H]2C(=O)Nc3c(c4cc(F)c(-c5c(O)cccc5F)c(F)c4n(-c4c(C)ccnc4C(C)C)c3=O)N2C[C@H]1C [Compound 22B] | 548 nM |
| C=CC(=O)N1C[C@@H]2C(=O)N(C)c3c(c4cc(Cl)c(-c5c(O)cccc5F)c(F)c4n(-c4c(C)ccnc4C(C)C)c3=O)N2C[C@H]1C [Compound 23B-1] | 150 nM |
| C=CC(=O)N1C[C@@H]2C(=O)N(C)c3c(c4cc(Cl)c(-c5c(O)cccc5F)c(F)c4n(-c4c(C)ccnc4C(C)C)c3=O)N2C[C@H]1C [Compound 23B-2] | 749 nM |
